Results on two compounds are retold here after US20140045937A1, “METHODS OF TREATING POLYCYSTIC OVARIAN SYNDROME USING CHLOROGENIC ACID” (Oculus Innovative Sciences, Inc., priority 2012, published 2014).

Assay [1] concerns PCOS and/or anovulation in female patients. The assay is described as follows: GLUCOREIN beverage (chlorogenic acid and L-cysteine) in anovulatory female patients with PCOS symptoms attempting to become pregnant. The class given is in vivo, human. The note with it: CLOMID added to GLUCOREIN regimen after three months; three patients with body mass index over 35; read after four months of treatment. Here is the method: Ten female patients, between the ages of 25 and 37, each anovulatory, were evaluated. […] Chronic anovulation is a common cause of infertility. These patients were also attempting to become pregnant and presented with multiple symptoms of PCOS. Their diets were supplemented with GLUCOREIN medical food beverage (a powdered solid including the components set forth in Table 1 mixed in 8 ounces of water). Per instructions for use, the patients each consumed one eight-ounce serving of the GLUCOREIN beverage each day, typically in the morning hours.
After four months of treatment, with all ten patients continuing with the protocol, the results were as follows: […]

A further assay concerns PCOS. Conditions: variety of clinical trials, literature; cited from earlier work.

On to `CCN(CC)CCOc1ccc(C(=C(Cl)c2ccccc2)c2ccccc2)cc1` [CLOMID, clomiphene], for which the “patients who tested positive for ovulation” value in assay [1] was “none”. For the compound `CC(=O)N[C@@H](CS)C(=O)O` [NAC, N-acetyl-L-cysteine], the “treatment or prevention of PCOS” value in the assay with PCOS is given as “shown to treat or prevent PCOS”.
